According to the supplement of paper PMC8149375:

Legend:
Conditions in all cases: treatment: drug + dasatinib (fixed dose, not stated); 5 days
769-P [1] = assay: GI50 of drug in presence of dasatinib; higher = less potent
Method: (§1)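 Primary HTS combination arm: 8 RCC cell lines treated with 8 doses (up to 10 uM) of each library drug plus a fixed dose of dasatinib (dose not stated) for 5 days; viability read by CellTiter-Glo and normalised to DMSO. GI50 was fitted with XLfit, AUC is the area under the dose-response curve, and minimum viability is the lowest fraction of DMSO viability across doses.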

786-O [2] = assay: as above
Method: as §1

A498 [3] = assay: as above
Method: as §1

ACHN [4] = assay: as above
Method: as §1

CAKI-1 [5] = assay: as above
Method: as §1

SN12C [6] = assay: as above
Method: as §1

TK-10 [7] = assay: as above
Method: as §1

UO-31 [8] = assay: as above
Method: as §1

769-P [9] = assay: minimum viability across doses, drug + dasatinib, relative to DMSO (fraction); higher = less growth inhibition
Method: as §1

786-O [10] = assay: as above
Method: as §1

A498 [11] = assay: as above
Method: as §1

ACHN [12] = assay: as above
Method: as §1

CAKI-1 [13] = assay: as above
Method: as §1

SN12C [14] = assay: as above
Method: as §1

TK-10 [15] = assay: as above
Method: as §1

UO-31 [16] = assay: as above
Method: as §1

769-P [17] = assay: AUC of dose-response viability curve, drug + dasatinib, normalised to DMSO (arbitrary (AUC of normalised viability)); higher = less growth inhibition
Method: as §1

786-O [18] = assay: as above
Method: as §1

A498 [19] = assay: as above
Method: as §1

ACHN [20] = assay: as above
Method: as §1

CAKI-1 [21] = assay: as above
Method: as §1

SN12C [22] = assay: as above
Method: as §1

TK-10 [23] = assay: as above
Method: as §1

UO-31 [24] = assay: as above
Method: as §1

SMILES	GI50 of drug (769-P [1])	GI50 of drug (786-O [2])	GI50 of drug (A498 [3])	GI50 of drug (ACHN [4])	GI50 of drug (CAKI-1 [5])	GI50 of drug (SN12C [6])	GI50 of drug (TK-10 [7])	GI50 of drug (UO-31 [8])	minimum viability across doses (769-P [9])	minimum viability across doses (786-O [10])	minimum viability across doses (A498 [11])	minimum viability across doses (ACHN [12])	minimum viability across doses (CAKI-1 [13])	minimum viability across doses (SN12C [14])	minimum viability across doses (TK-10 [15])	minimum viability across doses (UO-31 [16])	AUC of dose-response viability curve (769-P [17])	AUC of dose-response viability curve (786-O [18])	AUC of dose-response viability curve (A498 [19])	AUC of dose-response viability curve (ACHN [20])	AUC of dose-response viability curve (CAKI-1 [21])	AUC of dose-response viability curve (SN12C [22])	AUC of dose-response viability curve (TK-10 [23])	AUC of dose-response viability curve (UO-31 [24])
CCS(=O)(=O)Nc1ccc2c(c1)/C(=C(/Nc1ccc(CN3CCCCC3)cc1)c1ccccc1)C(=O)N2 [Hesperadin] + Cc1nc(Nc2ncc(C(=O)Nc3c(C)cccc3Cl)s2)cc(N2CCN(CCO)CC2)n1 [dasatinib]	327 nM	46.6 nM	441 nM	14.7 nM	45.5 nM	82.6 nM	713 nM	357 nM	0.0628	0.0121	0.109	0.00666	0.0323	0.00226	0.0643	0.0118	1.86	1.2	2.05	1.18	1.15	1.26	2.17	2.5
CNC(=O)Nc1ccc(-c2nc(N3CC4CCC(C3)O4)c3cnn(C4CCC5(CC4)OCCO5)c3n2)cc1 + Cc1nc(Nc2ncc(C(=O)Nc3c(C)cccc3Cl)s2)cc(N2CCN(CCO)CC2)n1 [dasatinib]	36.6 nM	10.7 nM	121 nM	9.64 nM	16.7 nM	32.3 nM	32.5 nM	38.8 nM	0.0698	0.00307	0.0731	0.0427	0.0306	0.116	0.0572	0.00565	1.16	0.872	1.64	0.872	0.907	1.24	1.19	1.2
Nc1ncnc2c1c(-c1cnc3[nH]ccc3c1)nn2C1CCCC1 [PP-121] + Cc1nc(Nc2ncc(C(=O)Nc3c(C)cccc3Cl)s2)cc(N2CCN(CCO)CC2)n1 [dasatinib]	415 nM	73.8 nM	1270 nM	132 nM	126 nM	337 nM	261 nM	896 nM	0.0299	0.00453	0.0684	0.0126	0.00718	0.0517	0.0102	0.00907	1.74	1.44	2.5	1.41	1.41	1.73	1.67	2.71
Cn1cnc(-c2cc3nccc(Oc4ccc(NC(=S)NC(=O)Cc5ccccc5)cc4F)c3s2)c1 [MGCD-265] + Cc1nc(Nc2ncc(C(=O)Nc3c(C)cccc3Cl)s2)cc(N2CCN(CCO)CC2)n1 [dasatinib]	> 10000 nM	> 10000 nM	> 10000 nM	2830 nM	3630 nM	> 10000 nM	> 10000 nM	5720 nM	0.557	0.646	0.676	0.44	0.256	0.515	0.727	0.107	2.39	2.64	3.49	2.13	2.21	2.38	2.82	3.44
CC[C@@H]1C(=O)N(C)c2cnc(Nc3ccc(C(=O)N[C@H]4CC[C@H](N5CCN(CC6CC6)CC5)CC4)cc3OC)nc2N1C(C)C [BI6727 (Volasertib)] + Cc1nc(Nc2ncc(C(=O)Nc3c(C)cccc3Cl)s2)cc(N2CCN(CCO)CC2)n1 [dasatinib]	43.2 nM	10.5 nM	138 nM	27.8 nM	55.2 nM	58.6 nM	160 nM	151 nM	0.0202	0.0043	0.0361	0.00653	0.00782	0.0772	0.00827	0.0151	1.16	0.664	1.83	1.13	1.25	1.37	1.61	2.02
N#CC[C@H](C1CCCC1)n1cc(-c2ncnc3[nH]ccc23)cn1 + Cc1nc(Nc2ncc(C(=O)Nc3c(C)cccc3Cl)s2)cc(N2CCN(CCO)CC2)n1 [dasatinib]	> 10000 nM	> 10000 nM	> 10000 nM	> 10000 nM	4270 nM	> 10000 nM	> 10000 nM	> 10000 nM	0.557	0.536	0.911	0.504	0.331	0.689	0.686	0.486	2.39	2.44	3.44	1.97	2.21	2.5	2.61	3.91
CN[C@@H]1C[C@H]2O[C@@](C)([C@@H]1OC)n1c3ccccc3c3c4c(c5c6ccccc6n2c5c31)C(=O)NC4 [Staurosporine] + Cc1nc(Nc2ncc(C(=O)Nc3c(C)cccc3Cl)s2)cc(N2CCN(CCO)CC2)n1 [dasatinib]	< 3 nM	< 3 nM	32.3 nM	3.6 nM	< 3 nM	10.4 nM	< 3 nM	< 3 nM	0.0048	0.00375	0.0115	0.00268	0.00221	0.00331	0.0201	0.0095	0.201	0.109	1.07	0.372	0.0603	0.755	0.303	0.0461
